As usually defined, the IC50 is the concentration needed to halve the response being measured.

One experiment addresses T1, human LTA4 hydrolase (Homo sapiens, UniProt P09960).
T1 sequence (P09960 1-611): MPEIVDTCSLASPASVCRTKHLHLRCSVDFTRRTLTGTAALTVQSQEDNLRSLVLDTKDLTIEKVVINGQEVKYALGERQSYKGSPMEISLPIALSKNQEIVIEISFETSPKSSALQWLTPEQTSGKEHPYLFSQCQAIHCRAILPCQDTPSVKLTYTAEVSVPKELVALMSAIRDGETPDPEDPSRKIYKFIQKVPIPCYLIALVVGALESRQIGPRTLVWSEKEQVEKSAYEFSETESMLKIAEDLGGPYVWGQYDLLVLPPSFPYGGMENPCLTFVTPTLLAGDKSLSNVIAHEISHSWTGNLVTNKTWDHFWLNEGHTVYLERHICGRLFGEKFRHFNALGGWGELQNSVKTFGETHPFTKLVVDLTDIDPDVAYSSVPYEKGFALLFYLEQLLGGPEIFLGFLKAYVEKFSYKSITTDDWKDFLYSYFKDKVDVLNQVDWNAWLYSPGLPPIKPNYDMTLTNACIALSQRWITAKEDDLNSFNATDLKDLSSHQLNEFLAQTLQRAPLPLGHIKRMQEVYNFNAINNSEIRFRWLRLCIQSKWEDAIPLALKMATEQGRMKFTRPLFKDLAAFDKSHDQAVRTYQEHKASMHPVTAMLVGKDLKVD
Briefly: LTA4H Enzyme assay (cleavage of Arg-AMC, fluorescence). The class given is biochemical.
Conditions: not given
The method, then:
The compounds of the invention are assessed for the ability to interact with human LTA4 hydrolase in an enzymatic assay that measures the ability of the enzyme to cleave the peptide bond of arginyl-aminomethylcoumarin (Arg-AMC). LTA4H Enzyme (1 nM final), Arg-AMC substrate (50 μM final), and compound are combined in a reaction buffer (50 mM Tris-HCl (pH 7.5), 100 mM KCl, 0.5% bovine serum albumin) at room temperature for 1 h. The formation of product is assessed by measuring the fluorescence of aminomethylcoumarin product (excitation wavelength 380 nm/emission wavelength 460 nm).
Molecule `COC1CCN(Cc2ccc([C@H]3COc4ccccc4O3)cc2)CC1` [Example 98, 1-{4-[(2S)-2,3-dihydro-1,4-benzodioxin-2-yl]benzyl}-4-methoxypiperidine] showed a 50% inhibitory concentration (IC50) of 0.61 nM.

Staying with this experiment, now noted: LTA4H Enzyme 1 nM, Arg-AMC substrate 50 μM, room temperature 1 h, fluorescence; read-out: IC50 values of LTA4H Enzyme assay.
Consider `O[C@@H]1CCN(Cc2ccc([C@H]3COc4ccccc4O3)cc2)C1` [Example 88, (3R)-1-{4-[(2S)-2,3-dihydro-1,4-benzodioxin-2-yl]benzyl}pyrrolidin-3-ol], for which the IC50 was determined as 0.54 nM.

Take `OC[C@@H]1CCCC[C@H]1NCc1ccc([C@H]2COc3ccccc3O2)cc1` [Example 89, [(1R,2R)-2-({4-[(2S)-2,3-dihydro-1,4-benzodioxin-2-yl]benzyl}amino)cyclohexyl]methanol]: the IC50 amounted to 1.4 nM.

Take `OCC1CCN(Cc2ccc([C@H]3COc4ccccc4O3)cc2)CC1` [Example 90, (1-{4-[(2S)-2,3-dihydro-1,4-benzodioxin-2-yl]benzyl}piperidin-4-yl)methanol]: the IC50 was 0.77 nM.

For the molecule `O[C@H]1CCN(Cc2ccc([C@H]3COc4ccccc4O3)cc2)C1` [Example 91, (3S)-1-{4-[(2S)-2,3-dihydro-1,4-benzodioxin-2-yl]benzyl}pyrrolidin-3-ol], the IC50 is 0.54 nM.

Consider `O=C1CN(Cc2ccc([C@H]3COc4ccccc4O3)cc2)CN1` [Example 92, 1-{4-[(2S)-2,3-dihydro-1,4-benzodioxin-2-yl]benzyl}imidazolidin-4-one], for which the IC50 came to 36 nM.

In the case of `CN(C)C1CCN(Cc2ccc([C@H]3COc4ccccc4O3)cc2)C1` (stereo partly drawn) [Example 93, 1-{4-[(2S)-2,3-dihydro-1,4-benzodioxin-2-yl]benzyl}-N,N-dimethylpyrrolidin-3-amine], the half-maximal inhibitory concentration (IC50) turned out to be 1.98 nM.

With `O=C1CCCCN1C1CCN(Cc2ccc([C@H]3COc4ccccc4O3)cc2)CC1` [Example 94, 1′-{4-[(2S)-2,3-dihydro-1,4-benzodioxin-2-yl]benzyl}-1,4′-bipiperidin-2-one], the IC50 amounted to 0.45 nM.

On to `c1ccc2c(c1)OC[C@H](c1ccc(CN(CC3CC3)C3CCCCC3)cc1)O2` [Example 95, N-(cyclopropylmethyl)-N-{4-[(2S)-2,3-dihydro-1,4-benzodioxin-2-yl]benzyl}cyclohexanamine], for which the IC50 came to 0.49 nM.

As for `O=C(NCCO)C1CCN(Cc2ccc([C@H]3COc4ccccc4O3)cc2)CC1` [Example 96, 1-{4-[(2S)-2,3-dihydro-1,4-benzodioxin-2-yl]benzyl}-N-(2-hydroxyethyl)piperidine-4-carboxamide], the IC50 amounted to 0.22 nM.

For `C[C@H]1CC[C@H](NCc2ccc([C@H]3COc4ccccc4O3)cc2)CC1` [Example 100, trans-N-{4-[(2S)-2,3-dihydro-1,4-benzodioxin-2-yl]benzyl}-4-methylcyclohexanamine], the IC50 was 2.36 nM.

For `c1ccc2c(c1)OC[C@H](c1ccc(CNC3CCCOC3)cc1)O2` (stereo partly drawn) [Example 103, N-{4-[(2S)-2,3-dihydro-1,4-benzodioxin-2-yl]benzyl}tetrahydro-2H-pyran-3-amine], the concentration for half-maximal inhibition (IC50) was found to be 2.4 nM.

Consider `CN(C)CCN(Cc1ccc([C@H]2COc3ccccc3O2)cc1)C1CCCCC1` [Example 104, N-cyclohexyl-N-{4-[(2S)-2,3-dihydro-1,4-benzodioxin-2-yl]benzyl}-N′,N′-dimethylethane-1,2-diamine], for which the IC50 came to 0.18 nM.

With `CC1COCCN1Cc1ccc([C@H]2COc3ccccc3O2)cc1` (stereo partly drawn) [Example 107, 4-{4-[(2S)-2,3-dihydro-1,4-benzodioxin-2-yl]benzyl}-3-methylmorpholine], the IC50 was found to be 1.35 nM.

Regarding `CN1CC(NCc2ccc([C@H]3COc4ccccc4O3)cc2)CCC1=O` (stereo partly drawn) [Example 108, 5-({4-[(2S)-2,3-dihydro-1,4-benzodioxin-2-yl]benzyl}amino)-1-methylpiperidin-2-one], the 50% inhibitory concentration (IC50) was found to be 0.87 nM.

Consider `CN1CCC(N(C)Cc2ccc([C@H]3COc4ccccc4O3)cc2)CC1` [Example 110, N-{4-[(2S)-2,3-dihydro-1,4-benzodioxin-2-yl]benzyl}-N,1-dimethylpiperidin-4-amine], for which the IC50 turned out to be 2.15 nM.

In the case of `Oc1ccc(CNCc2ccc([C@H]3COc4ccccc4O3)cc2)cc1` [Example 111, 4-[({4-[(2S)-2,3-dihydro-1,4-benzodioxin-2-yl]benzyl}amino)methyl]phenol], the IC50 came to 2.25 nM.

For the molecule `Oc1ccc2c(c1)CCN(Cc1ccc([C@H]3COc4ccccc4O3)cc1)C2` [Example 112, 2-{4-[(2S)-2,3-dihydro-1,4-benzodioxin-2-yl]benzyl}-1,2,3,4-tetrahydroisoquinolin-6-ol], the IC50 was determined as 1.07 nM.

Consider `O=C1CCC2(CCN(Cc3ccc([C@H]4COc5ccccc5O4)cc3)C2)N1` (stereo partly drawn) [Example 117, 7-{4-[(2S)-2,3-dihydro-1,4-benzodioxin-2-yl]benzyl}-1,7-diazaspiro[4.4]nonan-2-one], for which the half-inhibitory concentration (IC50) was found to be 0.23 nM.

`NC(=O)N1CCCC12CCN(Cc1ccc([C@H]3COc4ccccc4O3)cc1)C2` (stereo partly drawn) [Example 119, 7-{4-[(2S)-2,3-dihydro-1,4-benzodioxin-2-yl]benzyl}-1,7-diazaspiro[4.4]nonane-1-carboxamide]: the IC50 is 0.1 nM.

With `CN1CCCC2(CCN(Cc3ccc([C@H]4COc5ccccc5O4)cc3)CC2)C1=O` [Example 120, 9-{4-[(2S)-2,3-dihydro-1,4-benzodioxin-2-yl]benzyl}-2-methyl-2,9-diazaspiro[5.5]undecan-1-one], the IC50 came to 0.51 nM.

Consider `CS(=O)(=O)N1CCCC12CCN(Cc1ccc([C@H]3COc4ccccc4O3)cc1)C2` (stereo partly drawn) [Example 122, 7-{4-[(2S)-2,3-dihydro-1,4-benzodioxin-2-yl]benzyl}-1-(methylsulfonyl)-1,7-diazaspiro[4.4]nonane], for which the 50% inhibitory concentration (IC50) was found to be 0.91 nM.

With `N#CCN1CCCC12CCN(Cc1ccc([C@H]3COc4ccccc4O3)cc1)C2` (stereo partly drawn) [Example 124, (7-{4-[(2S)-2,3-dihydro-1,4-benzodioxin-2-yl]benzyl}-1,7-diazaspiro[4.4]non-1-yl)acetonitrile], the IC50 was determined as 2.45 nM.

With `O=C1CCC2(CCN(Cc3ccc([C@H]4COc5cccnc5O4)cc3)C2)N1` (stereo partly drawn) [Example 127, 7-{4-[(3S)-2,3-dihydro[1,4]dioxino[2,3-b]pyridin-3-yl]benzyl}-1,7-diazaspiro[4.4]nonan-2-one], the half-inhibitory concentration (IC50) turned out to be 0.12 nM.

As to `COCC(=O)N1CCCC12CCN(Cc1ccc([C@H]3COc4ccccc4O3)cc1)C2` (stereo partly drawn) [Example 128, 1-(7-{4-[(2S)-2,3-dihydro-1,4-benzodioxin-2-yl]benzyl}-1,7-diazaspiro[4.4]non-1-yl)-2-methoxyethanone], the IC50 turned out to be 0.65 nM.

Consider `CN1CCC2(CCN(Cc3ccc([C@H]4COc5cccnc5O4)cc3)CC2)C1=O` [Example 129, 8-{4-[(3S)-2,3-dihydro[1,4]dioxino[2,3-b]pyridin-3-yl]benzyl}-2-methyl-2,8-diazaspiro[4.5]decan-1-one], for which the IC50 was 0.23 nM.

On to `CN1CCCC2(CCN(Cc3ccc([C@H]4COc5ccccc5O4)cc3)CC2)C1=O` [Example 130, 9-[(S)-4-(2,3-Dihydro-benzo[1,4]dioxin-2-yl)-benzyl]-2-methyl-2,9-diaza-spiro[5.5]undecan-1-one], for which the IC50 was 0.51 nM.

For the molecule `O=C1CCN(Cc2ccc([C@H]3COc4ccccc4O3)cc2)CCN1` [Example 131, 1-{4-[(2S)-2,3-dihydro-1,4-benzodioxin-2-yl]benzyl}-1,4-diazepan-5-one], the IC50 stood at 1.73 nM.

As for `O=C1CCN(Cc2ccc([C@H]3COc4cccnc4O3)cc2)CCN1` [Example 132, 1-{4-[(3S)-2,3-dihydro[1,4]dioxino[2,3-b]pyridin-3-yl]benzyl}-1,4-diazepan-5-one], the IC50 is 0.91 nM.

For `c1cnc2c(c1)OC[C@H](c1ccc(CNC3CCCC3)cc1)O2` [Example 135, N-{4-[(3S)-2,3-dihydro[1,4]dioxino[2,3-b]pyridin-3-yl]benzyl}cyclopentanamine], the IC50 worked out at 0.47 nM.

`NC(=O)C1CCCN(Cc2ccc([C@H]3COc4cccnc4O3)cc2)C1` (stereo partly drawn) [Example 136, 1-{4-[(3S)-2,3-dihydro[1,4]dioxin[2,3-b]pyridin-3-yl]benzyl}piperidine-3-carboxamide]: the IC50 is 0.19 nM.

As to `CN1CCCN(Cc2ccc([C@H]3COc4cccnc4O3)cc2)CC1` [Example 143, (3S)-3-{4-[(4-methyl-1,4-diazepan-1-yl)methyl]phenyl}-2,3-dihydro[1,4]dioxino[2,3-b]pyridine], the concentration for half-maximal inhibition (IC50) amounted to 0.3 nM.

On to `O[C@@H]1CCN(Cc2ccc([C@H]3COc4cccnc4O3)cc2)C1` [Example 144, (3R)-1-{4-[(3S)-2,3-dihydro[1,4]dioxino[2,3-b]pyridin-3-yl]benzyl}pyrrolidin-3-ol], for which the IC50 was determined as 0.14 nM.

Regarding `OCC1CCN(Cc2ccc([C@H]3COc4cccnc4O3)cc2)CC1` [Example 146, (1-{4-[(3S)-2,3-dihydro[1,4]dioxino[2,3-b]pyridin-3-yl]benzyl}piperidin-4-yl)methanol], the half-maximal inhibitory concentration (IC50) is 0.29 nM.
